Columns and labels:
HCT-116 = experiment: NCI one-dose screening, colon cancer HCT-116; format: cell-based, human; conditions: 10 μM
OVCAR-8 = experiment: NCI one-dose screening, ovarian cancer OVCAR-8; format: cell-based, human; conditions: 10 μM
NCI-H226 = experiment: NCI one-dose screening, non-small cell lung cancer NCI-H226; format: cell-based, human; conditions: 10 μM
SR = experiment: NCI one-dose screening, leukemia SR; format: cell-based, human; conditions: 10 μM
SF-539 = experiment: NCI one-dose screening, CNS cancer SF-539; format: cell-based, human; conditions: 10 μM
CAKI-1 = experiment: NCI one-dose screening, renal cancer CAKI-1; format: cell-based, human; conditions: 10 μM
UACC-257 = experiment: NCI one-dose screening, melanoma UACC-257; format: cell-based, human; conditions: 10 μM
MDA-MB-231/ATCC = experiment: NCI one-dose screening, breast cancer MDA-MB-231/ATCC; format: cell-based, human; conditions: 10 μM
EKVX = experiment: NCI one-dose screening, non-small cell lung cancer EKVX; format: cell-based, human; conditions: 10 μM
U251 = experiment: NCI one-dose screening, CNS cancer U251; format: cell-based, human; conditions: 10 μM
human tumor cell lines = experiment: NCI one-dose screening, Mean / Delta / Range of growth percent over all tested cell lines; format: cell-based; conditions: 10 μM
LOX IMVI = experiment: NCI one-dose screening, melanoma LOX IMVI; format: cell-based, human; conditions: 10 μM
T-47D = experiment: NCI one-dose screening, breast cancer T-47D; format: cell-based, human; conditions: 10 μM
SNB-75 = experiment: NCI one-dose screening, CNS cancer SNB-75; format: cell-based, human; conditions: 10 μM
DU145 = experiment: NCI one-dose screening, prostate cancer DU145; format: cell-based, human; conditions: 10 μM
UO-31 = experiment: NCI one-dose screening, renal cancer UO-31; format: cell-based, human; conditions: 10 μM
MDA-MB-468 = experiment: NCI one-dose screening, breast cancer MDA-MB-468; format: cell-based, human; conditions: 10 μM
HCT-15 = experiment: NCI one-dose screening, colon cancer HCT-15; format: cell-based, human; conditions: 10 μM
NCl/ADR-RES = experiment: NCI one-dose screening, breast cancer NCl/ADR-RES; format: cell-based, human; conditions: 10 μM; listed under Ovarian cancer
HCC-2998 = experiment: NCI one-dose screening, colon cancer HCC-2998; format: cell-based, human; conditions: 10 μM
SK-OV-3 = experiment: NCI one-dose screening, ovarian cancer SK-OV-3; format: cell-based, human; conditions: 10 μM
HL-60, TB = experiment: NCI one-dose screening, leukemia HL-60, TB; format: cell-based, human; conditions: 10 μM
PC-3 = experiment: NCI one-dose screening, prostate cancer PC-3; format: cell-based, human; conditions: 10 μM
SK-MEL-28 = experiment: NCI one-dose screening, melanoma SK-MEL-28; format: cell-based, human; conditions: 10 μM
SF-295 = experiment: NCI one-dose screening, CNS cancer SF-295; format: cell-based, human; conditions: 10 μM
SF-268 = experiment: NCI one-dose screening, CNS cancer SF-268; format: cell-based, human; conditions: 10 μM
OVCAR-5 = experiment: NCI one-dose screening, ovarian cancer OVCAR-5; format: cell-based, human; conditions: 10 μM
A549/ATCC = experiment: NCI one-dose screening, non-small cell lung cancer A549/ATCC; format: cell-based, human; conditions: 10 μM
BT-549 = experiment: NCI one-dose screening, breast cancer BT-549; format: cell-based, human; conditions: 10 μM
TK-10 = experiment: NCI one-dose screening, renal cancer TK-10; format: cell-based, human; conditions: 10 μM
NCI-H522 = experiment: NCI one-dose screening, non-small cell lung cancer NCI-H522; format: cell-based, human; conditions: 10 μM
UACC-62 = experiment: NCI one-dose screening, melanoma UACC-62; format: cell-based, human; conditions: 10 μM
NCI-H460 = experiment: NCI one-dose screening, non-small cell lung cancer NCI-H460; format: cell-based, human; conditions: 10 μM
MDA, -MB-435 = experiment: NCI one-dose screening, breast cancer MDA, -MB-435; format: cell-based, human; conditions: 10 μM; listed under Melanoma
IGROV1 = experiment: NCI one-dose screening, ovarian cancer IGROV1; format: cell-based, human; conditions: 10 μM
PRMI-8226 cell line = experiment: NCI one-dose screening, leukemia PRMI-8226; format: cell-based, human; conditions: 10 μM
SN12C = experiment: NCI one-dose screening, renal cancer SN12C; format: cell-based, human; conditions: 10 μM
SK-MEL-2 = experiment: NCI one-dose screening, melanoma SK-MEL-2; format: cell-based, human; conditions: 10 μM
NCI-H23 = experiment: NCI one-dose screening, non-small cell lung cancer NCI-H23; format: cell-based, human; conditions: 10 μM
SK-MEL-5 = experiment: NCI one-dose screening, melanoma SK-MEL-5; format: cell-based, human; conditions: 10 μM
HT29 = experiment: NCI one-dose screening, colon cancer HT29; format: cell-based, human; conditions: 10 μM
SNB-19 = experiment: NCI one-dose screening, CNS cancer SNB-19; format: cell-based, human; conditions: 10 μM
[1] = NCI one-dose screening, renal cancer A489; format: cell-based, human; conditions: 10 μM
RXF, 393 = experiment: NCI one-dose screening, renal cancer RXF, 393; format: cell-based, human; conditions: 10 μM
MALME-3M = experiment: NCI one-dose screening, melanoma MALME-3M; format: cell-based, human; conditions: 10 μM
M14 = experiment: NCI one-dose screening, melanoma M14; format: cell-based, human; conditions: 10 μM
MCF7 = experiment: NCI one-dose screening, breast cancer MCF7; format: cell-based, human; conditions: 10 μM
786-O = experiment: NCI one-dose screening, renal cancer 786-O; format: cell-based, human; conditions: 10 μM
KM12 = experiment: NCI one-dose screening, colon cancer KM12; format: cell-based, human; conditions: 10 μM
K562cell line = experiment: NCI one-dose screening, leukemia K562; format: cell-based, human; conditions: 10 μM
MOLT-4 = experiment: NCI one-dose screening, leukemia MOLT-4; format: cell-based, human; conditions: 10 μM
ACHN = experiment: NCI one-dose screening, renal cancer ACHN; format: cell-based, human; conditions: 10 μM
COLO 205 = experiment: NCI one-dose screening, colon cancer COLO 205; format: cell-based, human; conditions: 10 μM
HOP-62 = experiment: NCI one-dose screening, non-small cell lung cancer HOP-62; format: cell-based, human; conditions: 10 μM
HOP-92 = experiment: NCI one-dose screening, non-small cell lung cancer HOP-92; format: cell-based, human; conditions: 10 μM
OVCAR-3 = experiment: NCI one-dose screening, ovarian cancer OVCAR-3; format: cell-based, human; conditions: 10 μM

Compound: O=C1c2ccccc2C(=O)c2c1cc(Sc1ccccn1)c1nsnc21 [C58, 4-(pyridin-2-yl-thio)anthra[2,1-c][1,2,5] thia-diazole-6,11-dione]
- Growth Percent HCT-116 (HCT-116): −84.89%
- Growth Percent OVCAR-8 (OVCAR-8): 18.67%
- Growth Percent NCI-H226 (NCI-H226): 82.43%
- Growth Percent SR (SR): 0.05%
- Growth Percent SF-539 (SF-539): 93.92%
- Growth Percent CAKI-1 (CAKI-1): 59.22%
- Growth Percent UACC-257 (UACC-257): −10.49%
- Growth Percent MDA-MB-231/ATCC (MDA-MB-231/ATCC): 4.55%
- Growth Percent EKVX (EKVX): 97.65%
- Growth Percent U251 (U251): 43.78%
- Growth Percent Delta (human tumor cell lines; delta over all cell lines): 125.38%
- Growth Percent Mean (human tumor cell lines; mean over all cell lines): 28.56%
- Growth Percent Range (human tumor cell lines; range over all cell lines): 214.98%
- Growth Percent LOX IMVI (LOX IMVI): −54.85%
- Growth Percent T-47D (T-47D): −52.85%
- Growth Percent SNB-75 (SNB-75): 70.82%
- Growth Percent DU145 (DU145): 58.15%
- Growth Percent UO-31 (UO-31): −79.21%
- Growth Percent MDA-MB-468 (MDA-MB-468): −80.08%
- Growth Percent HCT-15 (HCT-15): 82.58%
- Growth Percent NCI/ADR-RES (NCl/ADR-RES): 37.25%
- Growth Percent HCC-2998 (HCC-2998): 106.02%
- Growth Percent SK-OV-3 (SK-OV-3): 115.11%
- Growth Percent HL-60(TB) (HL-60, TB): −40.05%
- Growth Percent PC-3 (PC-3): 14.77%
- Growth Percent SK-MEL-28 (SK-MEL-28): 108.55%
- Growth Percent SF-295 (SF-295): 78.47%
- Growth Percent SF-268 (SF-268): 37.83%
- Growth Percent OVCAR-5 (OVCAR-5): 118.16%
- Growth Percent A549/ATCC (A549/ATCC): 96.53%
- Growth Percent BT-549 (BT-549): 76.58%
- Growth Percent TK-10 (TK-10): 80.94%
- Growth Percent NCI-H522 (NCI-H522): 48.83%
- Growth Percent UACC-62 (UACC-62): 69.46%
- Growth Percent NCI-H460 (NCI-H460): 89.65%
- Growth Percent MDA-MB-435 (MDA, -MB-435): −80.50%
- Growth Percent IGROV1 (IGROV1): −30.93%
- Growth Percent RPMI-8226 (PRMI-8226 cell line): −4.48%
- Growth Percent SN12C (SN12C): 77.39%
- Growth Percent SK-MEL-2 (SK-MEL-2): 14.45%
- Growth Percent NCI-H23 (NCI-H23): 4.86%
- Growth Percent SK-MEL-5 (SK-MEL-5): 61.76%
- Growth Percent HT29 (HT29): 108.08%
- Growth Percent SNB-19 (SNB-19): 103.09%
- Growth Percent A498 [1]: 68.74%
- Growth Percent RXF 393 (RXF, 393): 60.19%
- Growth Percent MALME-3M (MALME-3M): 18.08%
- Growth Percent M14 (M14): 73.52%
- Growth Percent MCF7 (MCF7): 68.59%
- Growth Percent 786-0 (786-O): −96.82%
- Growth Percent KM12 (KM12): 87.50%
- Growth Percent K562 (K562cell line): −23.03%
- Growth Percent MOLT-4 (MOLT-4): −41.19%
- Growth Percent ACHN (ACHN): −71.76%
- Growth Percent COLO 205 (COLO 205): 111.91%
- Growth Percent HOP-62 (HOP-62): 81.44%
- Growth Percent HOP-92 (HOP-92): −44.56%
- Growth Percent OVCAR-3 (OVCAR-3): −90.05%
